Assay results: article PMC2680146 (Chemical biology & drug design, 2008)
“Also recorded” adds a separate entry of the source.

Columns and labels:
Photolysis = assay type: physicochemical; settings: 300-400 nm light (λmax 350 nm)
yPFTase [1] = test: yPFTase substrate studies, continuous fluorescence assay; assay type: biochemical, Saccharomyces cerevisiae
yPFTase [2] = test: yPFTase-catalyzed prenylation, product analysis by HPLC; assay type: biochemical, Saccharomyces cerevisiae; settings: FPP source pure FPP or photolysis product of 5 or 9
[3] = λirrad 350 nm; ref [16]; cited from earlier work
rPFTase = rPFTase (Rattus norvegicus, UniProt Q02293+Q04631); test: X-ray crystallography of rPFTase:FPP:15 complex; assay type: binding; settings: FPP bound in presence of 15 vs PDB 1KZO
Sequence of rPFTase (Q02293 whole entry, one chain of several): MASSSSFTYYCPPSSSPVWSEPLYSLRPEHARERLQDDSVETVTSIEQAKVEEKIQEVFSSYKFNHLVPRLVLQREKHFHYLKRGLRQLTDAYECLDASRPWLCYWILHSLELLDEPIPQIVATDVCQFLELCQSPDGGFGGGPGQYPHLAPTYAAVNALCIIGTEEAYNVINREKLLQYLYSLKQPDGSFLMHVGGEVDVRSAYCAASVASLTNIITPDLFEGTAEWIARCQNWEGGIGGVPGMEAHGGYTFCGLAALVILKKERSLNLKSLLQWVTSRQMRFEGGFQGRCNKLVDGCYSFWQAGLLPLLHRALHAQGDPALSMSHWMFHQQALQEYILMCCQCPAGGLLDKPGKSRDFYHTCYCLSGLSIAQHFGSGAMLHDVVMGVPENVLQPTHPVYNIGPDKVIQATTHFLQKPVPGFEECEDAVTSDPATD

PFTase = settings: literature comparison value; ref [46]; cited from earlier work

Compound	Qu1 (single-photon uncaging efficiency) (Photolysis; 25 mM NH4HCO3)	photolysis product (Photolysis; RP-HPLC)	substrate behaviour (yPFTase [1]; prior to uncaging)	prenylated product formed (yPFTase [2])	further results
COc1cc(C(C)OP(=O)(O)OP(=O)(O)OC/C=C(\C)CC/C=C(\C)CCC=C(C)C)c([N+](=O)[O-])cc1OC (stereo not drawn) [Compound 9, β-1-(4,5-dimethoxy-nitrophenyl)ethyl farnesyl diphosphate]	0.08	release of farnesyl diphosphate; also recorded: efficiently release FPP upon irradiation	poorer substrate prior to uncaging; also recorded: poor substrates for PFTase	same prenylated product	uncaging rate constant k (Photolysis; 25 mM NH4HCO3, RP-HPLC, first-order kinetics): 0.12 min⁻¹; rate of enzymatic prenylation relative to FPP (yPFTase [1]; prior to uncaging): 7.6%
COc1cc(C(C)OP(=O)(O)OP(=O)(O)OP(=O)(O)OC[C@H]2O[C@@H](n3cnc4c(N)ncnc43)[C@H](O)[C@@H]2O)c([N+](=O)[O-])cc1OC (stereo partly shown) [DMNPE-ATP]	–	–	–	–	Qu1 (quantum efficiency) [3]: 0.07 mol·ein^-1; Uncaging Rate [3]: 18.0 s⁻¹
CC(C)=CCC/C(C)=C/CC/C(C)=C/CO[P@@](=O)(O)OP(=O)(O)O (stereo in doubt) [FPP, farnesyl diphosphate, reference compound]	–	–	–	same prenylated product	rms deviation over all FPP atoms (rPFTase): 0.546 Å
CVIM	–	–	–	–	IC50 (PFTase): 165 nM
CC(C)=CCC/C(C)=C/CC/C(C)=C/COP(=O)(O)OP(=O)(O)OCc1ccccc1[N+](=O)[O-] [Compound 5, β-(2-nitrobenzyl)farnesyl diphosphate]	0.70	release of farnesyl diphosphate; also recorded: efficiently release FPP upon irradiation	better substrate than compound 9; also recorded: poor substrates for PFTase	same prenylated product	interference of photolysis byproducts with catalysis (yPFTase [1]; after irradiation): do not interfere with catalysis in any way
